What was measured:
DK-MG = experiment: cells; assay type: functional, cell-based; conditions: Homo sapiens;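 also: growth inhibition of DK-MG cells, read out with a cell viability assay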
Description: SANGER: Inhibition of human DK-MG cell growth in a cell viability assay.

Daudi = experiment: cells; assay type: functional, cell-based, Homo sapiens; conditions: Homo sapiens, Daudi;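 also: growth inhibition of Daudi cells, read out by a viability assay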
Description: SANGER: Inhibition of human Daudi cell growth in a cell viability assay.

EB-3 = experiment: cells; assay type: functional, cell-based, Homo sapiens; conditions: Homo sapiens, EB-3;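 also: human EB-3 cells, growth inhibition read out via a cell viability assay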
Description: SANGER: Inhibition of human EB-3 cell growth in a cell viability assay.

EC-GI-10 = experiment: cells; assay type: functional, cell-based, Homo sapiens; conditions: Homo sapiens, EC-GI-10
Description: SANGER: Inhibition of human EC-GI-10 cell growth in a cell viability assay.

EFM-19 = experiment: cells; assay type: functional, cell-based; conditions: Homo sapiens;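 also: growth inhibition of human EFM-19 cells, measured in a cell viability assay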
Description: SANGER: Inhibition of human EFM-19 cell growth in a cell viability assay.

HCC1937 = experiment: cells; assay type: functional, cell-based; conditions: Homo sapiens;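 also: growth inhibition measured with a cell viability read-out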
Description: SANGER: Inhibition of human HCC1937 cell growth in a cell viability assay.

HCC70 = experiment: cells; assay type: functional, cell-based; conditions: Homo sapiens;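 also: cell viability assay measuring how strongly the compound suppresses proliferation of HCC70 cells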
Description: SANGER: Inhibition of human HCC70 cell growth in a cell viability assay.

HOP-92 = experiment: cells; assay type: functional, cell-based; conditions: Homo sapiens;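 also: cell viability readout, with IC50 reflecting inhibition of HOP-92 cell growth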
Description: SANGER: Inhibition of human HOP-92 cell growth in a cell viability assay.

HT55 = experiment: cells; assay type: functional, cell-based; conditions: Homo sapiens;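 also: cell viability readout measuring growth inhibition of human HT55 cells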
Description: SANGER: Inhibition of human HT55 cell growth in a cell viability assay.

HTC-C3 = experiment: cells; assay type: functional, cell-based; conditions: Homo sapiens;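 also: inhibition of cell growth, read out with a cell viability assay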
Description: SANGER: Inhibition of human HTC-C3 cell growth in a cell viability assay.

HuTu80 = experiment: cells; assay type: functional, cell-based, Homo sapiens, HUTU-80; conditions: Homo sapiens, HuTu80;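 also: growth inhibition of HuTu80 human cells, determined with a cell viability readout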
Description: SANGER: Inhibition of human HUTU-80 cell growth in a cell viability assay.

HuP-T4 = experiment: cells; assay type: functional, cell-based; conditions: Homo sapiens;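 also: cell viability assay measuring how much HuP-T4 cell growth is inhibited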
Description: SANGER: Inhibition of human HuP-T4 cell growth in a cell viability assay.

IMR-5 = experiment: cells; assay type: functional, cell-based, Homo sapiens; conditions: Homo sapiens, IMR-5; read-out: IC50;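 also: growth inhibition of human IMR-5 cells, read out with a cell viability assay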
Description: SANGER: Inhibition of human IMR-5 cell growth in a cell viability assay.

KARPAS-422 = experiment: cells; assay type: functional, cell-based, Homo sapiens; conditions: Homo sapiens, KARPAS-422
Description: SANGER: Inhibition of human KARPAS-422 cell growth in a cell viability assay.

KOSC-2 = experiment: cells; assay type: functional, cell-based; conditions: Homo sapiens;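 also: growth inhibition of KOSC-2 cells, read out by a cell viability assay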
Description: SANGER: Inhibition of human KOSC-2 cell growth in a cell viability assay.

KP-4 = experiment: cells; assay type: functional, cell-based; conditions: Homo sapiens;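 also: human KP-4 cells, with growth inhibition read out through a cell viability assay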
Description: SANGER: Inhibition of human KP-4 cell growth in a cell viability assay.

KU-19-19 = experiment: cells; assay type: functional, cell-based; conditions: Homo sapiens
Description: SANGER: Inhibition of human KU-19-19 cell growth in a cell viability assay.

KYSE-510 = experiment: cells; assay type: functional, cell-based; conditions: Homo sapiens;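 also: cell viability readout used to measure how strongly growth of the cell line is suppressed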
Description: SANGER: Inhibition of human KYSE-510 cell growth in a cell viability assay.

KYSE-70 cell line = experiment: cells; assay type: functional, cell-based; conditions: Homo sapiens;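 also: cell viability assay read-out, with IC50 expressing suppression of KYSE-70 cell growth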
Description: SANGER: Inhibition of human KYSE-70 cell growth in a cell viability assay.

LCLC-103H cell line = experiment: cells; assay type: functional, cell-based; conditions: Homo sapiens
Description: SANGER: Inhibition of human LCLC-103H cell growth in a cell viability assay.

LCLC-97TM1 = experiment: cells; assay type: functional, cell-based; conditions: Homo sapiens;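 also: cell viability assay measuring growth inhibition of human LCLC-97TM1 cells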
Description: SANGER: Inhibition of human LCLC-97TM1 cell growth in a cell viability assay.

LK-2 = experiment: cells; assay type: functional, cell-based; conditions: Homo sapiens;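 also: growth inhibition of LK-2 cells, read out with a viability assay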
Description: SANGER: Inhibition of human LK-2 cell growth in a cell viability assay.

LoVo = experiment: cells; assay type: functional, cell-based; conditions: Homo sapiens;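 also: growth inhibition of human LoVo cells, read out with a cell viability assay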
Description: SANGER: Inhibition of human LoVo cell growth in a cell viability assay.

MEL-JUSO = experiment: cells; assay type: functional, cell-based; conditions: Homo sapiens;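 also: growth inhibition of human MEL-JUSO cells, read out with a cell viability assay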
Description: SANGER: Inhibition of human MEL-JUSO cell growth in a cell viability assay.

MKN-1 = experiment: cells; assay type: functional, cell-based; conditions: Homo sapiens;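 also: growth inhibition of human MKN1 cells, read out by a cell viability measurement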
Description: SANGER: Inhibition of human MKN1 cell growth in a cell viability assay.

MKN-7 = experiment: cells; assay type: functional, cell-based; conditions: Homo sapiens;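 also: growth inhibition of MKN-7 cells, read out with a cell viability assay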
Description: SANGER: Inhibition of human MKN7 cell growth in a cell viability assay.

MRK-nu-1 = experiment: cells; assay type: functional, cell-based, Homo sapiens; conditions: Homo sapiens, MRK-nu-1;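 also: cell viability assay measuring growth suppression of human MRK-nu-1 cells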
Description: SANGER: Inhibition of human MRK-nu-1 cell growth in a cell viability assay.

NCI-H2081 = experiment: cells; assay type: functional, cell-based, Homo sapiens; conditions: Homo sapiens, NCI-H2081;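 also: growth inhibition of human NCI-H2081 cells, read out with a cell viability assay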
Description: SANGER: Inhibition of human NCI-H2081 cell growth in a cell viability assay.

NCI-H2170 = experiment: cells; assay type: functional, cell-based; conditions: Homo sapiens;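 also: cell viability assay measuring growth inhibition of human NCI-H2170 cancer cells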
Description: SANGER: Inhibition of human NCI-H2170 cell growth in a cell viability assay.

NCI-H322M = experiment: cells; assay type: functional, cell-based, Homo sapiens; conditions: Homo sapiens, NCI-H322M;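 also: cell viability assay measuring inhibition of growth of human NCI-H322M cells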
Description: SANGER: Inhibition of human NCI-H322M cell growth in a cell viability assay.

NCI-H524 = experiment: cells; assay type: functional, cell-based, Homo sapiens; conditions: Homo sapiens, NCI-H524;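 also: growth inhibition of human NCI-H524 cells, read out through a cell viability assay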
Description: SANGER: Inhibition of human NCI-H524 cell growth in a cell viability assay.

NCI-H64 = experiment: cells; assay type: functional, cell-based, Homo sapiens; conditions: Homo sapiens, NCI-H64;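 also: growth inhibition of NCI-H64 cells, read out with a cell viability assay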
Description: SANGER: Inhibition of human NCI-H64 cell growth in a cell viability assay.

NCI-H719 = experiment: cells; assay type: functional, cell-based, Homo sapiens; conditions: Homo sapiens, NCI-H719;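 also: growth inhibition of the cultured cell line, read out with a viability assay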
Description: SANGER: Inhibition of human NCI-H719 cell growth in a cell viability assay.

NUGC-3 = experiment: cells; assay type: functional, cell-based; conditions: Homo sapiens;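 also: growth inhibition of human NUGC-3 cells, read out with a cell viability assay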
Description: SANGER: Inhibition of human NUGC-3 cell growth in a cell viability assay.

OAW-42 = experiment: cells; assay type: functional, cell-based; conditions: Homo sapiens;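 also: growth inhibition of OAW-42 cells, read out with a cell viability assay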
Description: SANGER: Inhibition of human OAW-42 cell growth in a cell viability assay.

RMG-I = experiment: cells; assay type: functional, cell-based; conditions: Homo sapiens;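 also: growth inhibition of human RMG-I cells, read out with a cell viability assay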
Description: SANGER: Inhibition of human RMG-I cell growth in a cell viability assay.

SK-MEL3 = experiment: cells; assay type: functional, cell-based, SK-MEL-3; conditions: Homo sapiens;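 also: growth inhibition of human SK-MEL-3 cells, read out with a cell viability assay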
Description: SANGER: Inhibition of human SK-MEL-3 cell growth in a cell viability assay.

SK-MEL-30 = experiment: cells; assay type: functional, cell-based; conditions: Homo sapiens;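 also: growth inhibition of SK-MEL-30 cells, determined with a cell viability assay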
Description: SANGER: Inhibition of human SK-MEL-30 cell growth in a cell viability assay.

SNU-C1 = experiment: cells; assay type: functional, cell-based, Homo sapiens; conditions: Homo sapiens, SNU-C1;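 also: growth inhibition of SNU-C1 human cells, read out by a cell viability assay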
Description: SANGER: Inhibition of human SNU-C1 cell growth in a cell viability assay.

SW13 = experiment: cells; assay type: functional, cell-based; conditions: Homo sapiens;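 also: IC50 is inhibition of SW13 cell growth, read out with a cell viability assay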
Description: SANGER: Inhibition of human SW13 cell growth in a cell viability assay.

SW1573 = experiment: cells; assay type: functional, cell-based; conditions: Homo sapiens;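 also: growth inhibition of SW1573 cells, read out with a cell viability assay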
Description: SANGER: Inhibition of human SW1573 cell growth in a cell viability assay.

SW626 = experiment: cells; assay type: functional, cell-based; conditions: Homo sapiens;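 also: growth inhibition of SW626 cells, measured with a cell viability assay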
Description: SANGER: Inhibition of human SW626 cell growth in a cell viability assay.

TCC-SUP = experiment: cells; assay type: functional, cell-based; conditions: Homo sapiens;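 also: growth inhibition of TCC-SUP cells, read out with a cell viability assay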
Description: SANGER: Inhibition of human TCCSUP cell growth in a cell viability assay.

769-P = experiment: cells; assay type: functional, cell-based; conditions: Homo sapiens
Description: SANGER: Inhibition of human 769-P cell growth in a cell viability assay.

A-375 = experiment: cells; assay type: functional, cell-based; conditions: Homo sapiens;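 also: growth inhibition of A375 cells, read out with a cell viability assay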
Description: SANGER: Inhibition of human A375 cell growth in a cell viability assay.

A-431 = experiment: cells; assay type: functional, cell-based; conditions: Homo sapiens;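 also: growth inhibition of A-431 cells, determined with a cell viability read-out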
Description: SANGER: Inhibition of human A431 cell growth in a cell viability assay.

ASPC1 = experiment: cells; assay type: functional, cell-based; conditions: Homo sapiens;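 also: growth inhibition of AsPC-1 cells, read out with a cell viability assay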
Description: SANGER: Inhibition of human AsPC-1 cell growth in a cell viability assay.

BC1 cell line = experiment: SANGER: Inhibition of human BC-1 cell growth in a cell viability assay.; assay type: functional, cell-based; conditions: Homo sapiens, BC1
BL-70 = experiment: SANGER: Inhibition of human BL-70 cell growth in a cell viability assay.; assay type: functional, cell-based; conditions: Homo sapiens, BL-70
BOKU = experiment: cells; assay type: functional, cell-based; conditions: Homo sapiens;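 also: growth inhibition of the human BOKU cell line, read out by a cell viability assay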
Description: SANGER: Inhibition of human BOKU cell growth in a cell viability assay.

CAL-120 = experiment: cells; assay type: functional, cell-based; conditions: Homo sapiens;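 also: cell growth inhibition, read out as cell viability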
Description: SANGER: Inhibition of human CAL-120 cell growth in a cell viability assay.

CAL-39 = experiment: cells; assay type: functional, cell-based; conditions: Homo sapiens;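 also: cell viability assay measuring growth inhibition of CAL-39 cells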
Description: SANGER: Inhibition of human CAL-39 cell growth in a cell viability assay.

CAL-62 = experiment: cells; assay type: functional, cell-based; conditions: Homo sapiens;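 also: growth inhibition of CAL-62 cells, read out with a cell viability assay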
Description: SANGER: Inhibition of human CAL-62 cell growth in a cell viability assay.

VM-CUB-1 = experiment: cells; assay type: functional, cell-based; conditions: Homo sapiens;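 also: cell viability assay measuring growth inhibition of the human VM-CUB-1 cell line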
Description: SANGER: Inhibition of human VM-CUB-1 cell growth in a cell viability assay.

WM-115 = experiment: cells; assay type: functional, cell-based; conditions: Homo sapiens
Description: SANGER: Inhibition of human WM-115 cell growth in a cell viability assay.

CAMA-1 = experiment: cells; assay type: functional, cell-based; conditions: Homo sapiens;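 also: growth inhibition of CAMA-1 cells, read out with a cell viability assay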
Description: SANGER: Inhibition of human CAMA-1 cell growth in a cell viability assay.

CMK = experiment: cells; assay type: functional, cell-based, Homo sapiens; conditions: Homo sapiens, CMK;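 also: growth inhibition of CMK cells, read out as cell viability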
Description: SANGER: Inhibition of human CMK cell growth in a cell viability assay.

COc1ccc(-c2cc3nccn3c(Nc3ncccc3C(N)=O)n2)cc1OC
IC50 (DK-MG): > 8 µM | IC50 (Daudi): 0.607 µM | IC50 (EB-3): > 8 µM | IC50 (EC-GI-10): > 8 µM | IC50 (EFM-19): > 8 µM | IC50 (HCC1937): > 8 µM | IC50 (HCC70): 1.93 µM | IC50 (HOP-92): > 8 µM | IC50 (HT55): > 8 µM | IC50 (HTC-C3): > 8 µM | IC50 (HuTu80): 1.81 µM | IC50 (HuP-T4): 7.99 µM | IC50 (IMR-5): 6.08 µM | IC50 (KARPAS-422): 2.5 µM | IC50 (KOSC-2): > 8 µM | IC50 (KP-4): > 8 µM | IC50 (KU-19-19): > 8 µM | IC50 (KYSE-510): 2.87 µM | IC50 (KYSE-70 cell line): > 8 µM | IC50 (LCLC-103H cell line): 3.08 µM | IC50 (LCLC-97TM1): 0.57 µM | IC50 (LK-2): > 8 µM | IC50 (LoVo): 2.61 µM | IC50 (MEL-JUSO): 2.74 µM | IC50 (MKN-1): 7.3 µM | IC50 (MKN-7): > 8 µM | IC50 (MRK-nu-1): 2.91 µM | IC50 (NCI-H2081): > 8 µM | IC50 (NCI-H2170): 5.35 µM | IC50 (NCI-H322M): > 8 µM | IC50 (NCI-H524): > 8 µM | IC50 (NCI-H64): 2.16 µM | IC50 (NCI-H719): > 8 µM | IC50 (NUGC-3): > 8 µM | IC50 (OAW-42): > 8 µM | IC50 (RMG-I): > 8 µM | IC50 (SK-MEL3): 5.06 µM | IC50 (SK-MEL-30): > 8 µM | IC50 (SNU-C1): > 8 µM | IC50 (SW13): > 8 µM | IC50 (SW1573): > 8 µM | IC50 (SW626): > 8 µM | IC50 (TCC-SUP): > 8 µM | IC50 (769-P): 0.98 µM | IC50 (A-375): 1.27 µM | IC50 (A-431): 1.73 µM | IC50 (ASPC1): > 8 µM | IC50 (BC1 cell line): 1.07 µM | IC50 (BL-70): 0.671 µM | IC50 (BOKU): > 8 µM | IC50 (CAL-120): > 8 µM | IC50 (CAL-39): 3.57 µM | IC50 (CAL-62): > 8 µM | IC50 (VM-CUB-1): > 8 µM | IC50 (WM-115): > 8 µM | IC50 (CAMA-1): > 8 µM | IC50 (CMK): 0.682 µM

OC[C@H](Cc1ccccc1)Nc1nc(Oc2ccc3c(c2)CCC3)nc2c1ncn2Cc1ccc(-c2ccccc2)cc1
IC50 (DK-MG): > 10.2 µM | IC50 (Daudi): > 10.2 µM | IC50 (EB-3): > 10.2 µM | IC50 (EC-GI-10): > 10.2 µM | IC50 (EFM-19): > 10.2 µM | IC50 (HCC1937): > 10.2 µM | IC50 (HCC70): > 10.2 µM | IC50 (HOP-92): > 10.2 µM | IC50 (HT55): > 10.2 µM | IC50 (HTC-C3): > 10.2 µM | IC50 (HuTu80): 1.31 µM | IC50 (HuP-T4): 7.07 µM | IC50 (IMR-5): 3.1 µM | IC50 (KARPAS-422): 4.93 µM | IC50 (KOSC-2): > 10.2 µM | IC50 (KP-4): > 10.2 µM | IC50 (KU-19-19): > 10.2 µM | IC50 (KYSE-510): 3.45 µM | IC50 (KYSE-70 cell line): > 10.2 µM | IC50 (LCLC-103H cell line): > 10.2 µM | IC50 (LCLC-97TM1): 6.43 µM | IC50 (LK-2): > 10.2 µM | IC50 (LoVo): 4.56 µM | IC50 (MEL-JUSO): 7.9 µM | IC50 (MKN-1): > 10.2 µM | IC50 (MKN-7): > 10.2 µM | IC50 (MRK-nu-1): > 10.2 µM | IC50 (NCI-H2081): > 10.2 µM | IC50 (NCI-H2170): > 10.2 µM | IC50 (NCI-H322M): > 10.2 µM | IC50 (NCI-H524): > 10.2 µM | IC50 (NCI-H64): > 10.2 µM | IC50 (NCI-H719): > 10.2 µM | IC50 (NUGC-3): > 10.2 µM | IC50 (OAW-42): > 10.2 µM | IC50 (RMG-I): > 10.2 µM | IC50 (SK-MEL3): > 10.2 µM | IC50 (SK-MEL-30): 8.89 µM | IC50 (SNU-C1): 4.22 µM | IC50 (SW13): > 10.2 µM | IC50 (SW1573): > 10.2 µM | IC50 (SW626): 8.3 µM | IC50 (TCC-SUP): > 10.2 µM | IC50 (769-P): 3.64 µM | IC50 (A-375): 6.87 µM | IC50 (A-431): 3.32 µM | IC50 (ASPC1): > 10.2 µM | IC50 (BC1 cell line): > 10.2 µM | IC50 (BL-70): 4.13 µM | IC50 (BOKU): > 10.2 µM | IC50 (CAL-120): > 10.2 µM | IC50 (CAL-39): > 10.2 µM | IC50 (CAL-62): 9.44 µM | IC50 (VM-CUB-1): > 10.2 µM | IC50 (WM-115): > 10.2 µM | IC50 (CAMA-1): 9.65 µM | IC50 (CMK): > 10.2 µM

Reference: ChEMBL document CHEMBL1201861, “Genomics of Drug Sensitity in Cancer screening data, Wellcome Trust Sanger Institute”
